Experimental data: patent US6642215B2 (Leo Pharma A/S, priority 2001, dated 2003)
Where two headings read alike, the source gives them in different places.

What was measured:
NYH SCLC cells = test: DNA synthesis (tritiated thymidine incorporation) in NYH SCLC cells; format: cell-based
Protocol: (§1) DNA synthesis: NYH SCLC, HT-1080, Colo-320, PC-3 and H460 cells (7.5×10^3 cells/ml) were seeded in tissue culture vessels and the test compound were added 2 h after plating. Following an incubation for 144 h tritiated thymidine (5 CI/mmol, Amersham Pharmacia Biotech) was added to the culture at the concentration of 1 μCi/ml, and the cells were incubated for additional 4 h. The incorporated thymidine was measured with a β-counter. Each compound concentration was tested in triplicate.

HT-1080 cells = test: DNA synthesis (tritiated thymidine incorporation) in HT-1080 cells; format: cell-based; settings: Homo sapiens, 144 h incubation, mean ± SD of two to four experiments
Protocol: as §1

NYH Xenografts = test: NYH xenografts in nude mice, tumour growth; format: in vivo, NMRI nu/nu mice
Protocol: (§2) All of the animal experiments were conducted according to the guidelines and ethical standards of the Danish Committee for Animal Experiments. Female NMRI nu/nu mice 6 weeks of age were purchased from M&B (Ry, Denmark). The mice were allowed an acclimatisation period of 1-3 weeks before start of the experiments. The nude mice were housed in Scantainers under semi-sterile conditions and all handling of mice was performed in a laminar flow bench.
NYH Xenografts. NMRI nu/nu mice were injected with 1×10^7 cells in 0.2 ml media s.c. in both flanks and tumour growth was measured twice weekly. The tumour area was used as expression of the tumour size and was calculated from two perpendicular diameters measured with a digital caliper. Compound A was given for fourteen consecutive days by oral gavage from day 4-6 when the tumour size was 24-30 mm^2. Each treatment group consisted of 10 mice.
(§3) Statistical Methods In the animal models, tumour sizes were expressed by the mean of the trends in each treatment group. The trend is the linear increment or tumour size, where tumour size is the square root of the (mean) area of the tumour(s). Comparison with controls was expressed as T/C % and calculated as follows:
A=(overall mean tumour size at baseline+mean trend of treatment*intended days of treatment)
B=(overall mean tumour size at baseline+mean trend of control*intended days of treatment)
Overall mean tumour size at baseline=pooling all treatments this is the mean of all baseline values. For each mouse the baseline value is calculated as the square root of the (mean) area of the tumour(s).
Significance was tested with the Bonferroni correction. This correction is a method for adjusting (lowering) the significance level so the overall finding of one significant difference due to chance is around 5 percent.

Colo-320 cells = test: DNA synthesis (tritiated thymidine incorporation) in Colo-320 cells; format: cell-based; settings: Homo sapiens, 144 h incubation, mean ± SD of two to four experiments
Protocol: as §1

NF-κB = test: NF-κB-dependent luciferase assay in Colo-320 cells, TNF-α stimulation; format: cell-based, human; settings: Homo sapiens, compound 24 h before TNF-α 50 ng/ml 6 h, mean ± SD
Protocol: The NF-κB-luciferase reporter plasmid (pBIIX) and pRL-TK control vector described in Example 1 were used for the luciferase assay,
The Colo-320 cells were seeded with a density of 5×10^4 cells/cm^2 in 6-well plates (NUNC). The following day, the cells were co-transfected with construct DNA and pRL-TK using FuGene Transfection Reagent (Boehringer Mannheim). A mixture of 5 μl Fugene and 95 μl serum free medium (per well) was prepared and incubated for 5 min at room temperature. Then, the mixture was transferred to a mixture of construct DNA (2.5 μg per well) and pRL-TK vector (0.25 μg per well), gently mixed, incubated for 15 min at room temperature and added to the cells. The cells were treated at 37° C. with compound A (10^−12−10^−5 M) or DMSO for 24 h before stimulation with TNF-α (50 ng/ml) for 6 h.
The cell lysate was assayed for luciferase activity using the Dual luciferase kit as described by the manufacturer (Promega). All transfections were performed in triplicate. Firefly luciferase activity was corrected for differences in transfection efficiency by normalizing it to the measured Renilla luciferase activity.
NF-κB activity was measured by the luciferase assay described in Example 1.

IKK = molecular target: T1, IKK (Homo sapiens, UniProt O14920); test: In vitro kinase assay: IKK immunoprecipitated from LPS-stimulated THP-1 cells, GST-IκBα phosphorylation; format: biochemical; settings: 30 min pretreatment of LPS-activated IKK
T1 construct: IKK was immunoprecipitated with an IKKα/β antibody; endogenous in cells; host or cells: THP-1 cells stimulated with 1 μg/ml LPS; whole cell extract immunoprecipitated with an IKKα/β antibody (Santa Cruz)
T1 sequence (O14920 whole entry): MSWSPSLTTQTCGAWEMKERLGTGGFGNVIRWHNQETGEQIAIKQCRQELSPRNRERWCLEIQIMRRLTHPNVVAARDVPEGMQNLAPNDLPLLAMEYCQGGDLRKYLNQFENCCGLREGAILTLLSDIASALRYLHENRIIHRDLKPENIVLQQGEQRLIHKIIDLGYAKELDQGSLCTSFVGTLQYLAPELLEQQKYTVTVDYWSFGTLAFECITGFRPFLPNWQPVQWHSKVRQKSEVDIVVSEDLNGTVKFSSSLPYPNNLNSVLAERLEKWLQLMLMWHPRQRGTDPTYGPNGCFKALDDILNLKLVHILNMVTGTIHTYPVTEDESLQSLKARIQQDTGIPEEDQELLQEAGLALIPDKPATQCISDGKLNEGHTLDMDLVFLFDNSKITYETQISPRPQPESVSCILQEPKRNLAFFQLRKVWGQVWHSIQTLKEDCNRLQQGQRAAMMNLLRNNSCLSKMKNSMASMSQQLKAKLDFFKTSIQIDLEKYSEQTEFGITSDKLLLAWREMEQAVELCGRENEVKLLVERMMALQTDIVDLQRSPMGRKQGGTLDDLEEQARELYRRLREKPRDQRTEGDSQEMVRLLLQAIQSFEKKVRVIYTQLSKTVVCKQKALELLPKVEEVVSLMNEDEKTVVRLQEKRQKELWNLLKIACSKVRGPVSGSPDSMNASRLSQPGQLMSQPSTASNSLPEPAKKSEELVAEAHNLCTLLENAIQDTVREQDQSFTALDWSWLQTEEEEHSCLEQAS
T1 sequence (O15111 whole entry partner): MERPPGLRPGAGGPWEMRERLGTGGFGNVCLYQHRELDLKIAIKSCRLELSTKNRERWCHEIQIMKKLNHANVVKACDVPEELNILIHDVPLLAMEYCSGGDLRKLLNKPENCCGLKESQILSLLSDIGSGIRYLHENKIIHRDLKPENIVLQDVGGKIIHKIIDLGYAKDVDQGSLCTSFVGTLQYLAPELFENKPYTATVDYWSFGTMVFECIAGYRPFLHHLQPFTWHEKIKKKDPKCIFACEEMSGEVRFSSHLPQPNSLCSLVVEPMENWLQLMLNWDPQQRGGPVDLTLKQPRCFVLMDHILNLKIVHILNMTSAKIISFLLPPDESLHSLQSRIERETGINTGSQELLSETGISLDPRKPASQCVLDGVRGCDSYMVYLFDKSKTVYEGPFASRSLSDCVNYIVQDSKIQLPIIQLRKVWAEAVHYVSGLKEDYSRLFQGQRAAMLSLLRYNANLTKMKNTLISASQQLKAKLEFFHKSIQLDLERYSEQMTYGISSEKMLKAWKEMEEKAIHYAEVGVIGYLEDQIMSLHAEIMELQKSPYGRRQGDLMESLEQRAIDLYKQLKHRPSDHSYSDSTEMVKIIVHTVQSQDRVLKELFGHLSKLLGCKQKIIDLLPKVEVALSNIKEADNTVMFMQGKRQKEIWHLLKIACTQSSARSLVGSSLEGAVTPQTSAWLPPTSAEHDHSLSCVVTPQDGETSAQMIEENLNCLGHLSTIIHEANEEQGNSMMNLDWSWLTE
T1 sequence (Q9Y6K9 whole entry partner): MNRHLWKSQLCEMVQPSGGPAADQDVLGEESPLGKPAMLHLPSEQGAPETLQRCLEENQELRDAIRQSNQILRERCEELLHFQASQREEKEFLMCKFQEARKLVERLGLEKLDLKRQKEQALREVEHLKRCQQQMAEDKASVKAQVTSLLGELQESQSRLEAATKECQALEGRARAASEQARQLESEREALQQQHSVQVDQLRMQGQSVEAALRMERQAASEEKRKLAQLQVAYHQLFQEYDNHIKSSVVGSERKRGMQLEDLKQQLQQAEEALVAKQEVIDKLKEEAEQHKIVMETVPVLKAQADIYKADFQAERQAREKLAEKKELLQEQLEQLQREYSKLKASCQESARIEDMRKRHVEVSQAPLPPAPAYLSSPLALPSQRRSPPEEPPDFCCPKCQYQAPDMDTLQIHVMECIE
Protocol: In vitro kinase assay: THP-1 cells (1×10^7 cells) were stimulated with 1 μg/ml LPS for the indicated time periods and whole cell extracts were prepared as described above. IKK was immunoprecipitated with an IKKα/β antibody (raised against amino acid 470-755 of IKKβ of human origin but partially cross-reactive with IKKα as detected by Western Blotting (Santa Cruz Biotechnology Inc.). Compound A was diluted in kinase buffer (25 mM HEPES pH 7.5, 10 mM magnesium acetate, 50 μM ATP) at the appropriate concentrations. The compound was added to the beads for 30 min. at 30° C. The kinase reaction was started by adding 2.5 μg of the GST-IκBα substrate (Santa Cruz Biotechnology Inc.) together with 2 μCi γ-^32P-ATP (Amersham Pharmacia Biotech) per sample. The reaction was allowed to proceed for 30 min. at 30° C., and the IKK activity was measured by the amount of radioactive-labelled GST-IκBα bands, quantified by the STORM860 Phospho-Imager.
A general problem with the kinase assay is prestimulation of the kinase. To achieve a value for the zero-point, the LPS-activated IKK mixture was incubated with 20 μM myricetin (Sigma-Aldrich), which is a known IKKβ inhibitor (S. H. Tsal et al., J. Cell Biochem. 74, 1999, pp. 606-615). This value was subtracted from the all other values. All data are expressed as percentage of the activity of the LPS-activated IKKβ kinase treated with 0.1% DMSO.

PC-3 Xenografts = test: PC-3 xenografts in nude mice, tumour growth; format: in vivo, NMRI nu/nu mice; settings: PC-3 xenograft, 50 mg/kg, oral gavage
Protocol: as §2
PC-3 Xenografts. NMRI nu/nu mice were injected with 1×10^6 cells in 0.2 ml media s.c. in each flank and tumour size was measured as mentioned above. Compound A was given for four weeks by oral gavage from day 14 when the tumour size was about 12 mm^2. Each treatment group consisted of 10 mice.
as §3
A=(overall mean tumour size at baseline+mean trend of treatment*intended days of treatment) […]
Overall mean tumour size at baseline=pooling all treatments this is the mean of all baseline values. For each mouse the baseline value is calculated as the square root of the (mean) area of the tumour(s). […]

N#CNC(=Nc1ccncc1)NCCCCCCOc1ccc(Cl)cc1 [compound A, N-(6-(4-chlorophenoxy)hexyl)-N′-cyano-N″-(4-pyridyl)guanidine]
IC50 (NYH SCLC cells; NYH SCLC cells, 144 h incubation, mean ± SD of two to four experiments, read-out: DNA synthesis (IC50 nM)): 0.64 ± 0.06 nM | IC50 (NYH SCLC cells; incorporation of tritiated thymidine in NYH SCLC cells, read-out: NYH proliferation in vitro (IC50 nM)): 0.64 ± 0.06 nM | IC50 (HT-1080 cells): 5.6 ± 0.3 nM | In vivo xenografts in nude mice T/C (%) (NYH Xenografts; NYH SCLC xenograft, 50 mg/kg, oral gavage): −100% | NYH tumor growth in vivo (T/C in %) (NYH Xenografts; nude mice with NYH SCLC tumours, 14 days of treatment with 20 mg/kg): −44% | IC50 (Colo-320 cells): 5.4 ± 0.1 nM | IC50 (NF-κB): 84 ± 33 nM | IC50 (IKK; four independent experiments, read-out: IKK activity IC50, range of values): 0.9 to 70 nM | IC50 (IKK; mean of four independent experiments, read-out: IKK activity, mean IC50 value): 8 nM | In vivo xenografts in nude mice T/C (%) (PC-3 Xenografts): −5%
